ChEMBL document CHEMBL1201862, “PubChem BioAssay data set” (2004)
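Method: 48-hour compound exposure of cells in 96-well plates, five concentrations, linear interpolation of endpoints. Abbreviation: GI50, concentration required for 50% inhibition of growth.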 Active and inactive are the calls of the source. No stated cut-off is given here; in the data, active = GI50 up to about 1.1 µM and inactive = higher.

Experiments:
Assay in all cases: NCI anticancer screen, dose series, 48 h
HOP-18 = system: HOP-18
SK-OV-3 = system: SK-OV-3
SF-268 = system: SF-268
SK-MEL-5 = system: SK-MEL-5
SK-MEL-2 = system: SK-MEL-2
KM12 = system: KM12
K562 = system: K562
OVCAR-5 = system: OVCAR-5
NCI-H522 = system: NCI-H522
HCC 2998 = system: HCC 2998
SNB-19 = system: SNB-19
A498 = system: A498
SNB-78 = system: SNB-78
KM-20L2 = system: KM-20L2
LXFL 529 = system: LXFL 529
IGROV-1 = system: IGROV-1
Malme-3M = system: Malme-3M

Measured: GI50

CC(C)c1cccc(=O)c(O)c1 [HINOKITIOL]
inactive: HOP-18 15.3 µM | SK-OV-3 49.4 µM | SF-268 6.37 µM | SK-MEL-5 24.5 µM | SK-MEL-2 12.1 µM | KM12 12.4 µM | K562 6.38 µM | OVCAR-5 15.7 µM | NCI-H522 3.82 µM | HCC 2998 9.23 µM | SNB-19 10.9 µM | A498 44.1 µM | SNB-78 48.3 µM | KM-20L2 4.27 µM | LXFL 529 6.85 µM | IGROV-1 13.5 µM | Malme-3M 12.6 µM
